Experimental findings from PubChem BioAssay (NCI) are described below.

Among the test systems are HCT-116 colon; RXF 393 renal; OVCAR-4 ovarian; ACHN renal; 786-0 renal; HCC-2998 colon; MCF7 breast; OVCAR-8 ovarian; HT29 colon; RPMI-8226 leukemia.
Experiment in all cases: NCI tumour cell line growth inhibition, 48 h

The structures appear in SMILES notation.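 Step 1: Grow cells in 96-well plates. Step 2: Expose to compound for 48 hours at 5 concentrations. Step 3: Interpolate endpoints linearly; if unreached, use highest concentration. GI50 marks 50% less growth. TGI denotes the concentration required for complete inhibition of growth.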 Where only a bound is given, the exact number is not on record here.

As to `Cn1c(NCC(O)CN2CCCC2)cc(=O)n(C)c1=O` (stereo not given), the GI50 in the assay with HCT-116 colon, in the assay on RXF 393 renal, with OVCAR-4 ovarian, with ACHN renal, in the assay with 786-0 renal and in the assay on HCC-2998 colon was above 100 µM in each case. For the same compound, the GI50 in the assay with MCF7 breast, in the assay with OVCAR-8 ovarian, in the assay with HT29 colon and in the assay with RPMI-8226 leukemia was above 100 µM in each case. In addition, the TGI with HCT-116 colon, in the assay on RXF 393 renal, with OVCAR-4 ovarian, with ACHN renal, in the assay on 786-0 renal and with HCC-2998 colon was above 100 µM in each case. Further, the TGI in the assay with MCF7 breast, with OVCAR-8 ovarian, with HT29 colon and in the assay on RPMI-8226 leukemia was above 100 µM each time.
Turning to `COc1ccc(C2C=C(c3ccc4c(c3)OCO4)Oc3c2c(=O)oc2ccccc32)cc1OC` (stereo not given), the TGI in the assay on HCT-116 colon is above 100 µM; with RXF 393 renal it was above 45.5 µM; in the assay on OVCAR-4 ovarian, above 100 µM; in the assay on ACHN renal, above 100 µM; in the assay on 786-0 renal, above 100 µM; in the assay on HCC-2998 colon, 2.26 µM. Besides, the TGI with MCF7 breast was above 100 µM; in the assay on OVCAR-8 ovarian it was above 100 µM; in the assay on HT29 colon, above 85.5 µM; in the assay on RPMI-8226 leukemia, 5.29 µM.
With `CS(=O)(=O)CC(=O)c1ccccc1`, the TGI in the assay on HCT-116 colon, in the assay with RXF 393 renal, with OVCAR-4 ovarian, in the assay on ACHN renal, in the assay on 786-0 renal and in the assay with HCC-2998 colon was above 100 µM in each case. Further, the TGI with MCF7 breast, in the assay on OVCAR-8 ovarian, in the assay with HT29 colon and in the assay on RPMI-8226 leukemia was above 100 µM each time.
For `COc1ccc(/C=C2\C=C(c3ccccc3)N(CCc3ccccc3)C2=O)cc1OC`, the GI50 is 3.09 µM in the assay with HCT-116 colon; 3.64 µM in the assay on RXF 393 renal; 3.15 µM with OVCAR-4 ovarian; 3.53 µM in the assay with ACHN renal; 2.14 µM in the assay with 786-0 renal; 12.9 µM in the assay on HCC-2998 colon. Moreover, the GI50 with MCF7 breast is 4.18 µM; with OVCAR-8 ovarian it was 6.09 µM; in the assay on HT29 colon, 8.92 µM; in the assay on RPMI-8226 leukemia, 18.4 µM. The TGI in the assay on HCT-116 colon is 11.6 µM; in the assay on RXF 393 renal it was 15.6 µM; in the assay on OVCAR-4 ovarian, 87 µM; with ACHN renal it was 14 µM; with 786-0 renal, 5.85 µM; in the assay on HCC-2998 colon, 64.1 µM. In addition, the TGI in the assay with MCF7 breast came to 57.2 µM; in the assay with OVCAR-8 ovarian, 22.5 µM; in the assay on HT29 colon, 48.9 µM; in the assay with RPMI-8226 leukemia, 84.9 µM.
Regarding `Clc1ccc(OCc2nnc3n2N=C(c2ccc(Cl)cc2Cl)CS3)cc1`, the GI50 with HCT-116 colon is 13.2 µM; in the assay with RXF 393 renal, 13.7 µM; with OVCAR-4 ovarian it was 23.7 µM; in the assay with ACHN renal, 20.4 µM; in the assay with 786-0 renal, 32.7 µM; in the assay with HCC-2998 colon, 16.6 µM. In addition, the GI50 is 27.8 µM in the assay on MCF7 breast, 25.4 µM in the assay on OVCAR-8 ovarian, 16 µM in the assay on HT29 colon and 21.1 µM with RPMI-8226 leukemia. Besides, the TGI with HCT-116 colon was 30.4 µM; with RXF 393 renal it was 31.8 µM; in the assay with OVCAR-4 ovarian, 79 µM; with ACHN renal, 49.3 µM; in the assay on 786-0 renal, above 100 µM; in the assay on HCC-2998 colon, 35 µM. In addition, the TGI in the assay on MCF7 breast was 69.2 µM; with OVCAR-8 ovarian it was 52.7 µM; in the assay with HT29 colon, 51.8 µM; in the assay on RPMI-8226 leukemia it was 68.5 µM.
In the case of `CC(=O)Nc1ccc(COC(O)CN2CCCCC2)cc1[N+](=O)[O-]` (stereo not given), the TGI in the assay on HCT-116 colon, with RXF 393 renal, in the assay with OVCAR-4 ovarian, in the assay with ACHN renal, in the assay on 786-0 renal and in the assay with HCC-2998 colon was above 100 µM in each case. Moreover, the TGI with MCF7 breast, with OVCAR-8 ovarian, in the assay with HT29 colon and with RPMI-8226 leukemia was above 100 µM each time.
For the compound `CC(=O)OC1CC2C3CCC4C[C@@H](NC(=O)C=C(C)C)CC[C@]4(C)C3CC[C@]2(C)[C@H]1C(C)N(C)C` (stereo not given in full), the GI50 in the assay on HCT-116 colon was 0.854 µM; with RXF 393 renal, 1.59 µM; in the assay with OVCAR-4 ovarian, 2.82 µM; in the assay on ACHN renal, 2.73 µM; in the assay on 786-0 renal, 1.65 µM; in the assay on HCC-2998 colon, 1.75 µM. Besides, the GI50 was 1.71 µM in the assay with MCF7 breast, 4.87 µM in the assay on OVCAR-8 ovarian, 0.376 µM in the assay on HT29 colon and 1.66 µM in the assay on RPMI-8226 leukemia. The TGI in the assay on HCT-116 colon was 2.22 µM; in the assay on RXF 393 renal, 3.66 µM; with OVCAR-4 ovarian, 17.5 µM; in the assay on ACHN renal, 7.36 µM; in the assay on 786-0 renal, 3.17 µM; in the assay on HCC-2998 colon, 3.57 µM. Besides, the TGI in the assay with MCF7 breast was 5.84 µM; in the assay on OVCAR-8 ovarian, above 31.5 µM; in the assay on HT29 colon, 1.47 µM; in the assay with RPMI-8226 leukemia, 5.67 µM.
Take `c1ccc2cc(C[n+]3ccn(CCCCCCCCCCn4cc[n+](Cc5ccc6ccccc6c5)c4)c3)ccc2c1`: the GI50 was 1.55 µM in the assay with HCT-116 colon; 0.822 µM with RXF 393 renal; 0.988 µM in the assay with OVCAR-4 ovarian; 6.17 µM with ACHN renal; 5.33 µM with 786-0 renal; 1.37 µM in the assay with HCC-2998 colon. Besides, the GI50 was 0.554 µM in the assay on MCF7 breast, 2.18 µM in the assay with OVCAR-8 ovarian, 0.715 µM in the assay with HT29 colon and 0.737 µM with RPMI-8226 leukemia. Further, the TGI with HCT-116 colon worked out at 15.1 µM; in the assay on RXF 393 renal, 3.72 µM; in the assay on OVCAR-4 ovarian, 9.88 µM; with ACHN renal it was 80.3 µM; in the assay with 786-0 renal it was 32.6 µM; in the assay with HCC-2998 colon, 5.13 µM. The TGI in the assay with MCF7 breast worked out at 2.3 µM; in the assay on OVCAR-8 ovarian, 13.1 µM; in the assay on HT29 colon it was 4.74 µM; in the assay with RPMI-8226 leukemia it was 4.17 µM.
For `O=c1ssc(Cl)c1Cl`, the TGI in the assay on HCT-116 colon is above 10 µM; with RXF 393 renal, above 10 µM; in the assay with OVCAR-4 ovarian, above 10 µM; with ACHN renal, above 10 µM; in the assay with 786-0 renal it was above 7.05 µM; in the assay on HCC-2998 colon it was above 10 µM. The TGI in the assay on MCF7 breast was above 10 µM; in the assay with OVCAR-8 ovarian it was above 10 µM; in the assay on HT29 colon it was above 10 µM; in the assay with RPMI-8226 leukemia, 9.11 µM.
